# How the values were obtained:
# human skin fibroblasts [1] = experiment: Collagen production promoting effect of AMP2Na on cultured human skin fibroblasts (PICP EIA), Test Example 1; format: cell-based; details: 2 days culture, culture supernatant, FIG. 1
# Method: Evaluation of the collagen production promoting effect of adenosine monophosphate disodium on cultured human skin fibroblasts.
# Primary-cultured human skin fibroblasts (manufactured by Kurabo Industries, Ltd.) were cultured in a 10 cm petri dish, and the cultured cells were collected in the subconfluent state and then freeze-preserved. Using the freeze-preserved cells, an evaluation of the collagen production promoting effect of adenosine monophosphate disodium (hereinafter, referred to as “AMP2Na) was conducted. In the following, the proportion of AMP2Na was based on the concentration of AMP.
# 1) The freeze-preserved cells were dissolved in an LSGS (Low Serum Growth Supplement)-containing liquid culture medium 106S (manufactured by Kurabo Industries, Ltd.), and the cell concentration and medium amount were adjusted to 30000 cells/100 μl. 100 μl of thus obtained cell-containing liquid was poured into each well of a test plate. […]
# (§1) 4) Two days after culture initiation, the culture supernatant of each well was collected, and the amount of Procollagen type I C-peptide (PICP) was determined based on the amount of collagen in the culture supernatant using a Procollagen type I C-peptide (PIP) EIA Kit (manufactured by Takara Bio Inc.).
# human skin fibroblasts [2] = experiment: Collagen production promoting effect of combined use of AMP2Na and UMP2Na on cultured human skin fibroblasts (PICP EIA), Test Example 2; format: cell-based
# Method: 1) The freeze-preserved cells were dissolved in an LSGS (Low Serum Growth Supplement)-containing liquid culture medium 106S (manufactured by Kurabo Industries, Ltd.), and the cell concentration and medium amount were adjusted to 30000 cells/100 μl. 100 μl of thus obtained cell-containing liquid was poured into each well of a test plate.
# 2) AMP2Na solutions of various concentrations were prepared using a sterilized phosphate buffer solution, and then filtered through a filter, followed by sterilization. The resultants were added to a liquid medium 106S (manufactured by Kurabo Industries, Ltd.) to prepare AMP2Na-containing culture media of various concentrations (0 to 1×10^−5 w/v %).
# 3) Twenty four hours after injecting cells into the plate wells, it was confirmed that human fibroblasts adhered to the wells, and the medium was removed from each well. Subsequently, an AMP2Na-containing culture medium (200 μl) of one of various concentrations prepared in 2) above was added to each well. The mixtures were cultured at 37° C. under 5% CO2 for two days.
# as §1
# Evaluation of the collagen production promoting effect of the combined use of adenosine monophosphate disodium and uridine monophosphate disodium on cultured human skin fibroblasts.
# The evaluation of the collagen production promoting effect of cultured human skin fibroblasts was conducted following the same procedure of Test Example 1 above except for using such media. In Table 1, the proportions of AMP2Na and UMP2Na were based on the concentration of AMP and UMP, respectively.
Compound,PICP amount relative to cells cultured in the AMP-free medium (human skin fibroblasts [1]; AMP2Na 1×10^−5 w/v % in medium),PICP amount as compared with cells cultured in an AMP-free medium (human skin fibroblasts [1]; AMP2Na 1×10^−8 to 1×10^−5 w/v % in medium),"action of promoting collagen production (PICP concentration) (human skin fibroblasts [2]; AMP2Na alone 1×10^−6 w/v % (test medium 2) vs test medium 4, FIG. 2)","action of promoting collagen production (PICP concentration) (human skin fibroblasts [2]; UMP2Na alone 1×10^−8 w/v % (test medium 3) vs test medium 4, FIG. 2)","potentiation of the action of promoting collagen production of AMP2Na (PICP concentration) (human skin fibroblasts [2]; combined use: AMP2Na 1×10^−6 w/v % + UMP2Na 1×10^−8 w/v % (test medium 1), FIG. 2)"
"Nc1ncnc2c1ncn2[C@@H]1O[C@H](COP(=O)([O-])[O-])[C@@H](O)[C@H]1O.[Na+].[Na+] [AMP2Na, adenosine monophosphate disodium]",about 1.4 times,increased,has an action of promoting collagen production,,
"O=c1ccn([C@@H]2O[C@H](COP(=O)([O-])[O-])[C@@H](O)[C@H]2O)c(=O)[nH]1.[Na+].[Na+] [UMP2Na, uridine monophosphate disodium]",,,,no action of promoting collagen production,sharply potentiates
